{"source": "patent EP0507188A1", "about": "“Substituted 2',3'-dideoxy-5-trifluoromethyluridines, method of their preparation and their use in medicaments” (BAYER AG, priority 1991, dated 1992)", "key": {"[1]": {"experiment": "Water solubility (qualitative remark on the lyophilisate)", "type": "physicochemical", "settings": "lyophilisate of the sodium salt"}, "[2]": {"system": "HEL-Zellen", "experiment": "Effect on vitality of other cells by incubation (HEL)", "type": "cell-based", "settings": "no influence on vitality up to this concentration", "method": "(§1) Die Wirkung des Beispiels 2 auf andere Zellen wurde durch Inkubation von HEL-, MEF-Zellen getestet. Es zeigte sich keine Beeinflussung der Vitalität dieser Zellen bis zu einer Konzentration von 250 µM."}, "[3]": {"system": "MEF-Zellen", "experiment": "Effect on vitality of other cells by incubation (MEF)", "type": "cell-based", "settings": "no influence on vitality up to this concentration", "method": "as §1"}, "[4]": {"system": "Hepatitis B Virus (HBV)", "experiment": "HBV test system in HBV-DNA-transfected hepatoma cells (HEP G2.2.15): HBV DNA in supernatant, HBsAg ELISA", "type": "cell-based", "settings": "read-out: IC₅₀", "excerpt": "Es wurde überraschend gefunden, daß die erfindungsgemäßen Verbindungen der allgemeinen Formel (I) eine außerordentlich starke spezifische Wirkung gegen das Heptatitis B Virus (HBV) besitzen. Der Nachweis wurde in mit Hepatitis B Virus DNA transfizierten Hepatomzellen (HEP G2.2.15) geführt.\nDie Ergebnisse der unten aufgeführten Beispiele wurden zu dem in der folgenden Literaturangabe [Sells, M.A.; Chen, M.L., Acs, G., Proc. Natl. Acad. Sci. USA S. 1005 - 1009, Vol. 84 (1987)] beschriebenen HBV Testsystem ermittelt: Transfizierte Hepatomzellen (HEP G2.2.15) wurden mit verschiedenen Konzentrationen an der jeweiligen Verbindung inkubiert. Durch Behandlung der transfizierten Hepatomzellinie HEP G2.2.15 mit den erfindungsgemäßen Verbindungen konnte das […] der virusspezifischen HBV DNA im Überstand sowie eine Reduktion des HBsAg Spiegels gezeigt werden. Es wurde weiter gefunden, daß die erfindungsgemäßen Verbindungen zu einer Reduktion der replikativen Intermediate der Hepatitisviren führen. Im Überstand der Zellkulturen wurde nach PEG Fällung der Gehalt an HBV DNA bestimmt. Dies geschah unter Verwendung einer nicht radioaktiv markierten HBV genomischen DNA Probe [Pauly, P., 1982, P.H.D. Thesis, University of Göttingen, F.R.G.; Köchel et al., 1990, EMBL, Accession-Nr. X 51790]. Gleichzeitig erfolgte der Nachweis der Beeinflussung der HBsAg Bildung mittels eines kommerziell erhältlichen Elisa Tests. Die angegebenen IC₅₀-Werte beziehen sich auf die Substratkonzentrationen, die unter den oben aufgeführten Testbedingungen eine 50%ige Hemmung der HBV DNA Konzentration im Überstand bewirken."}, "[5]": {"settings": "HEP G2.2.15 cells, concentration giving 50% inhibition of HBV DNA concentration in supernatant"}}, "note": "Read-outs that look alike come from different tables or passages of the source."}
{"compound": "O=c1[nH]c(=O)n([C@H]2CC[C@@H](CO)O2)cc1C(F)(F)F.[Na]", "note": "[Beispiel 12, β-2',3'-Didesoxy-5-(trifluormethyl)-uridin-natriumsalz]", "values": [{"measurement": "Wasserlöslichkeit", "setting": "[1]", "result": "gut wasserlösliches"}]}
{"compound": "O=c1[nH]c(=O)n([C@H]2CC[C@@H](CO)O2)cc1C(F)(F)F", "note": "[Beispiel 2, β-2',3'-Didesoxy-5-(trifluormethyl)-uridin]", "values": [{"measurement": "Beeinflussung der Vitalität dieser Zellen", "setting": "[2]", "result": "> 250", "unit": "µM"}, {"measurement": "Beeinflussung der Vitalität dieser Zellen", "setting": "[3]", "result": "> 250", "unit": "µM"}, {"measurement": "IC50", "setting": "[4]; [5]", "result": 0.01, "unit": "nM"}]}
{"compound": "β-5'-(1-Ethoxycarbonyloxy-eth-1-yl)-2',3'-didesoxy-5-(trifluormethyl)-uridin [Beispiel 5]", "values": [{"measurement": "IC50", "setting": "[4]; [5]", "result": "> 0.25", "unit": "nM"}]}
{"compound": "Nc1ccn([C@H]2CC[C@@H](CO)O2)c(=O)n1", "note": "[DDC, 2',3'-Didesoxy-cytidin, reference compound]", "values": [{"measurement": "IC50", "setting": "[4]; Hepatitis B virus, HepG2.2.15, reference substances in the same test system (HEP G2.2.15, HBV DNA in supernatant)", "result": 5000, "unit": "nM"}]}
{"compound": "Nc1ncnc2c1ncn2[C@H]1CC[C@@H](CO)O1", "note": "[DDA, reference compound]", "values": [{"measurement": "IC50", "setting": "[4]; reference substances in the same test system (HEP G2.2.15, HBV DNA in supernatant)", "result": "> 100000", "unit": "nM"}]}
